From paper PMC10989020, “Preclinical characterization of a non-peptidomimetic HIV protease inhibitor with improved metabolic stability” (Antimicrobial Agents and Chemotherapy, 2024)
Like-named read-outs stand apart in the source and are kept apart here.

Experiments:
Cytotoxicity in HEp-2 = format: cell-based; conditions: human, HEp-2 cells
Protocol: (§1) Compound cytotoxicity assessment in MT-4 cells, primary CD4+ T lymphocytes, and MDMs was carried out using a protocol identical to the antiviral assay except uninfected cells were used and tested with higher concentration ranges of test compounds. Assessment of cytotoxicity in additional human cell lines (Gal-PC3, Gal-HepG2, HEp-2, Huh-7, MRC-5, HepG2-NTCP, Huh7-Lunet HCV 1b and 2a replicons, NHBE, A549-hACE2) and primary human PBMCs (resting and stimulated with PHA/IL-2) and hepatocytes have been described previously ([19]). For all cytotoxicity assays, the CC50 value for puromycin was determined as a positive internal control and to assess assay sensitivity in each cell type. The effect of tested compounds on cell viability was measured using a CellTiter-Glo readout, performed according to the manufacturer’s recommendations.

[1] = Metabolic stability of radiolabeled GS-9770 in human liver microsomes; format: in vitro ADME; conditions: radiolabeled GS-9770, human liver microsomes
[2] = Cytotoxicity in Gal-HepG2; format: cell-based; conditions: human, Gal-HepG2 cells
Protocol: as §1

[3] = Cytotoxicity in A549-hACE2; format: cell-based; conditions: human, A549-hACE2 cells
Protocol: as §1

[4] = Cytotoxicity in cell lines of the non-HIV virus panel (summary); format: cell-based; conditions: human, HepG2-NTCP, Huh7-Lunet replicon cells, NHBE, A549-ACE2, read-out: CC50 range in the corresponding cell lines
Protocol: as §1

in vitro = format: cell-based; conditions: human
Protocol: as §1

HCV-1b = test: microbe, parasite or virus in culture; conditions: Hepatitis C virus, Huh-7
Cytotoxicity in NHBE = format: cell-based; conditions: human, NHBE cells
Protocol: as §1

[5] = In vivo pharmacokinetics in rat; set-up: species or system Sprague-Dawley rat
Protocol: Preclinical pharmacokinetic studies were performed in male Sprague–Dawley rats, beagle dogs, and cynomolgus monkeys (three animals per dosing group in each species) following federal and Institutional Animal Care and Use Committee (IACUC) guidelines as described previously ([32]). […] The oral fraction absorbed (F%) was calculated using the formula:
%F=( PO Dose AUC0−inf) x (IV Dose)/(IV Dose AUC0−inf) x (PO Dose)×100%

[6] = Cytotoxicity in uninfected MT-4 cells; format: cell-based, human; conditions: human, uninfected (mock infected) MT-4 T cells, MT-4 T cell line
Protocol: as §1

[7] = system: HIV-1LAI wild type and site-directed PR mutants; test: microbe, parasite or virus in culture; format: cell-based
[8] = Repeated oral administration in dogs; format: in vivo; conditions: high doses
[9] = Predicted clearance from cynomolgus monkey liver microsome fractions; format: in vitro ADME
[10] = Cytotoxicity in stimulated PBMCs; format: cell-based; conditions: human
Protocol: as §1

[11] = system: panel of 49 patient-derived HIV-1 reporter viruses with PI resistance-associated substitutions; format: cell-based
[12] = Predicted clearance from rat liver microsome fractions; format: in vitro ADME
Cytotoxicity in Huh-7 = format: cell-based; conditions: human, Huh-7 cells
Protocol: as §1

[13] = Cytotoxicity in unstimulated PBMCs; format: cell-based; conditions: human, unstimulated (resting) PBMCs
Protocol: as §1

[14] = system: 20 HIV-1 clinical isolates; test: Antiviral assay in PBMCs with HIV-1 clinical isolates (RT endpoint); format: cell-based; conditions: Human immunodeficiency virus 1, PBMC, 168 h, read-out: mean EC50
Protocol: Antiviral assays using fresh human PBMCs independently infected with a panel of clinical HIV-1 and HIV-2 isolates were performed by Southern Research as a contracted research study and assessed 7 days post-infection using reverse transcriptase (RT) endpoint assay. Antiviral assays using HIV-1 reporter viruses containing patient-derived sequences encoding all of PR and a portion of RT (amino acids 1–313) and conferring resistance to FDA-approved HIV PIs were performed by Monogram Biosciences Inc. (South San Francisco, CA) using their previously described Phenosense assay ([25]).

HIV-1 IIIb [15] = test: Dose-escalation resistance selection in MT-2 cells; format: cell-based
Cytotoxicity in Gal-PC3 = format: cell-based; conditions: human, Gal-PC3 cells
Protocol: as §1

HIV-1 IIIb [16] = test: 5-day cytoprotection antiviral assay in MT-4 cells; format: cell-based
[17] = Predicted clearance from dog liver microsome fractions; format: in vitro ADME
[18] = Cytotoxicity in HepG2-NTCP; format: cell-based; conditions: human, HepG2-NTCP cells
Protocol: as §1

[19] = human
[20] = biological target: non-HIV aspartic proteases (BACE, cathepsin D, cathepsin E, pepsin, renin, and napsin); format: biochemical; conditions: IC50 considered equal to Ki(app)
Protocol: Except for the substrate used in the renin assay, all fluorogenic substrates and recombinant enzymes were purchased from R&D Systems and the assays were performed according to the manufacturer’s recommended procedure with minor changes. For the BACE1 assay, recombinant human BACE1 (50 nM) and test compound at various concentrations were added to a reaction buffer containing 20 mM sodium acetate at pH 4.8 with 0.06% Triton X-100 and 1% DMSO. After a 15-minute pre-incubation, the enzymatic reaction was initiated by the addition of fluorogenic substrate to a final concentration of 1 µM and a total volume of 100 µL. For the Cat D assay, after a 15-minute pre-incubation, the enzymatic reaction was initiated by the addition of the fluorogenic substrate to a final concentration of 4 µM and a total volume of 100 µL. […] Activated Cat E (0.5 nM) and test compound at various concentrations were added to the assay buffer containing 100 mM sodium acetate at pH 3.5 with 200 mM sodium chloride and 1% DMSO. After a 15-minute pre-incubation, the enzymatic reaction was initiated by the addition of the fluorogenic substrate to a final concentration of 20 µM and a total volume of 100 µL. […]
Enzymatic assay data were analyzed in GraphPad Prism (version 9.3.0) by curve fitting with a four-parameter logistic equation to determine inhibitor half-maximal inhibitory concentration (IC50) values.

HIV-1 BaL = test: p24 production antiviral assay in CD4+ T-lymphocytes; format: cell-based; conditions: Human immunodeficiency virus 1, T-lymphocyte, HIV-1BaL infected
From the text: Antiviral assays performed in HIV-1BaL infected CD4 +T-lymphocytes and monocyte-derived macrophages (MDMs) have been described previously ([18]). Cell-free supernatants derived from the CD4 +T cell and macrophage cultures were harvested 7- and 12-days post-infection, respectively, and the amount of HIV present was quantified by p24 antigen enzyme-linked immunosorbent assay (ELISA, Perkin Elmer, Waltham, MA) performed according to the manufacturer’s protocol.

HBV = test: microbe, parasite or virus in culture; conditions: Hepatitis B virus
Protocol: The hepatitis B virus (HBV) surface antigen (HBsAg) antiviral assay was performed as previously described ([28]) using ND-654 as a positive control. The respiratory syncytial virus (RSV) A2 HEp-2 antiviral assay was performed as previously described ([29]) using YM-53403 as a positive control. The severe acute respiratory syndrome coronavirus 2 (SARS-CoV-2) antiviral assay was performed as described previously ([30]) using remdesivir as a positive control.

[21] = Cytotoxicity in monocyte-derived macrophages; format: cell-based; conditions: human, uninfected (mock infected) monocyte-derived macrophages
Protocol: as §1

SMILES: CC(C)(CC1(c2ccc(-c3cnn(C4CC4)n3)cc2)NC(=N)N(C(COC(=O)NC2(C(F)F)CC2)c2ccc(Cl)c(-c3ncnn3C(F)F)c2)C1=O)C(F)(F)F (centres unmarked) [GS-9770]
- CC50 (Cytotoxicity in HEp-2): 17 ± 2 µM
- predicted human plasma clearance [1]: 1.5 mL/min/kg
- CC50 [2]: 13 ± 6 µM
- CC50 [3]: 7.8 ± 2.1 µM
- CC50 [4]: 4.7 to 15.1 µM
- CC50 (in vitro): 15.1 ± 3 µM
- EC50 (HCV-1b): 10.8 ± 0.5 µM
- CC50 (Cytotoxicity in NHBE): 4.7 ± 1.7 µM
- F% (oral bioavailability) ([5]; 1 mg/kg IV and 5 mg/kg PO): 45.9 ± 9.8%
- tolerability at the doses tested ([5]; 1 mg/kg IV, 4–5 mg/kg PO): well tolerated
- clearance ([5]; male, Sprague-Dawley, plasma, 1 mg/kg IV): 3.5 mL/min/kg
- half-life ([5]; male, Sprague-Dawley, plasma, 1 mg/kg IV and 5 mg/kg PO, read-out: Terminal t1/2 (converted)): 10.6 ± 1.4 h
- Vd ([5]; male, Sprague-Dawley, plasma, 1 mg/kg IV, read-out: Vss): 2.7 ± 0.3 L/kg
- bioavailability ([5]; male, Sprague-Dawley, plasma, oral, 5 mg/kg, 1 mg/kg IV and 5 mg/kg PO, read-out: F% (oral bioavailability)): 49%
- CC50 [6]: 6.6 ± 1.3 µM
- EC50 ([7]; Human immunodeficiency virus 1, PR L24I M46L A77I V82A): 0.0059 ± 0.0032 µM
- EC50 ([7]; Human immunodeficiency virus 1, PR L24I M46L I64V A77I V82A): 0.0224 ± 0.0073 µM
- EC50 ([7]; Human immunodeficiency virus 1, PR M46L A77I V82A): 0.0083 ± 0.0018 µM
- EC50 ([7]; Human immunodeficiency virus 1, PR V82A): 0.0082 ± 0.0032 µM
- EC50 ([7]; Human immunodeficiency virus 1, Wild type (WT) HIV-1LAI): 0.0031 ± 0.0016 µM
- finding after repeated oral administration [8]: bronchoalveolar inflammation observed in the lungs of dogs
- in vitro predicted blood CL [9]: 2.5 mL/min/kg
- CC50 [10]: 9.1 ± 0.6 µM
- loss in susceptibility ([11]; virus 8, virus 11 and virus 42): 3 fold
- mutant vs wild-type HIV EC50 FC ([11]; virus 13 (L10I, M46I, G48V, I50V, V82A, L90M)): 21 fold
- mutant vs wild-type HIV EC50 FC ([11]; virus 29 (L10F/L, D30N, I54V, N88D, L90M)): 12 fold
- mutant vs wild-type HIV EC50 FC ([11]; virus 43 (L10I, M46L, I54V, V82A)): 11 fold
- in vitro predicted blood CL [12]: 1.2 mL/min/kg
- CC50 (Cytotoxicity in Huh-7): 17 ± 3 µM
- CC50 [13]: 9.1 ± 5.5 µM
- EC50 [14]: 0.0073 µM
- GS-9770 concentration at variant first emergence (HIV-1 IIIb [15]; variant L24I M46L A77I V82A): 100 nM
- GS-9770 concentration at variant first emergence (HIV-1 IIIb [15]; variant M46L A77I V82A): 100 nM
- CC50 (Cytotoxicity in Gal-PC3): 15 ± 4 µM
- EC50 (HIV-1 IIIb [16]; Human immunodeficiency virus 1, IIIB, T-cell, 120 h): 0.011 ± 0.002 µM
- 95% effective concentration (EC95) (HIV-1 IIIb [16]; calculated from MT-4/HIV-1IIIb EC50 and Hill coefficient): 0.0216 µM
- in vitro predicted blood CL [17]: 12 mL/min/kg
- CC50 [18]: 8.4 ± 2 µM
- predicted plasma half-life in humans [19]: ~ 18.5 hours
- Ki ([20]; read-out: Ki(app), lower end of range over six non-HIV proteases): 0.106 µM
- Ki ([20]; read-out: Ki(app), upper end of range over six non-HIV proteases): > 100 µM
- EC50 (HIV-1 BaL): 0.0085 ± 0.0025 µM
- EC50 (HBV): 11 ± 4 µM
- CC50 [21]: 16 ± 3 µM
